The values that follow come from patent US20240208992A1, “MACROCYCLES AS CFTR MODULATORS” (Idorsia Pharmaceuticals Ltd, priority 2021, published 2024).

The experiment addresses human F508del-CFTR (Homo sapiens, UniProt P13569, DEL508-508). As to the kind of experiment: F508del-CFTR cell surface expression (corrector activity), DiscoveRx ß-galactosidase complementation chemiluminescence assay in recombinant U2OS cell line.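 As to all read-outs here: U2OS cells co-expressing ProLink-tagged F508del-CFTR and a membrane-anchored enzyme acceptor, where more surface CFTR restores β-galactosidase activity measured by chemiluminescence.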 Particulars: U2OS cell line, 16h compound incubation; for EC50: EC50, F508del-CFTR cell surface expression, geomean values; for Emax: in relation to the Emax of the corrector lumacaftor (=100%), arithmetic mean values.

Sequence of human F508del-CFTR (P13569 with tags, fused parts or gaps DEL508-508): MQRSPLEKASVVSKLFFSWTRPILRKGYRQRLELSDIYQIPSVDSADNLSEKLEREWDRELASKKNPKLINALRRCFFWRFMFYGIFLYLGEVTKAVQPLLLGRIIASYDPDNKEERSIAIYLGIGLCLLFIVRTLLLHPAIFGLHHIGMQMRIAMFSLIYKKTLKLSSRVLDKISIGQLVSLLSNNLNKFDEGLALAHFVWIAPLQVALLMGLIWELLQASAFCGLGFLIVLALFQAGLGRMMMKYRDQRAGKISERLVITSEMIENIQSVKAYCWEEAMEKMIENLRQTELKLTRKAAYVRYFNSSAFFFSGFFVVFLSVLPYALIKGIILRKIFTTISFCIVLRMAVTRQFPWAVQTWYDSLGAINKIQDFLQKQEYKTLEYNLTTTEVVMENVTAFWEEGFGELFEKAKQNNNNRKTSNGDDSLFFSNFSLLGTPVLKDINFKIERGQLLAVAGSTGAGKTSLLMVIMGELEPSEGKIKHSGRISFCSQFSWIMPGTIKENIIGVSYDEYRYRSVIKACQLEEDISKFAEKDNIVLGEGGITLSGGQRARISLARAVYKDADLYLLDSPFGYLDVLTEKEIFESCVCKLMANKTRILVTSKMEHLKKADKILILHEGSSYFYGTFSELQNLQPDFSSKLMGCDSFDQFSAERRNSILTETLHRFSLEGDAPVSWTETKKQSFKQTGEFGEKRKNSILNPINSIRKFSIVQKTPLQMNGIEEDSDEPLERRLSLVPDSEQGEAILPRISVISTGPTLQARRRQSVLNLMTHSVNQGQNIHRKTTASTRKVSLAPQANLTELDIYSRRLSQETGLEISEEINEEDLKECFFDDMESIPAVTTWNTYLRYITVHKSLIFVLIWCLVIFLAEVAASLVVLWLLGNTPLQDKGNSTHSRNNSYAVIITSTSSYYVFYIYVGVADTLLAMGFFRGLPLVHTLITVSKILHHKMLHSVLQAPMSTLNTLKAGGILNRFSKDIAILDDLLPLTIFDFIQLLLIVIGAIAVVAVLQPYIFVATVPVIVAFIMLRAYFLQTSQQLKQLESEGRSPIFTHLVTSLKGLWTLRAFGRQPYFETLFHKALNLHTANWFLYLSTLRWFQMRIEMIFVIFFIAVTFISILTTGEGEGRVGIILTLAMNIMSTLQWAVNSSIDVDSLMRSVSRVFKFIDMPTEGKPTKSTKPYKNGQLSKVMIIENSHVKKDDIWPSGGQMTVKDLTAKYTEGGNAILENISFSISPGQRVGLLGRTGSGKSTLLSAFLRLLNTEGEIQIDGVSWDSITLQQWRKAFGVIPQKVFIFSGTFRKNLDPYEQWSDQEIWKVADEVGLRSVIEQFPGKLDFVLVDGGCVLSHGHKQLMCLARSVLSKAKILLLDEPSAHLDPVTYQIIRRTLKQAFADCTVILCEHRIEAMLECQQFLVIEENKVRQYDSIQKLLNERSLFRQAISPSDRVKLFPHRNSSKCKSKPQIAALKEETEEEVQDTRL
Description: The method measures the effect of over-night compound incubation on F508del-CFTR cell surface expression in a recombinant U2OS cell line (DiscoveRx, #93-0987C3). This cell line is engineered to co-express (i) human F508del-CFTR tagged with a Prolink (PK=short ß-galactosidase fragment) and (ii) the remainder of the ß-galactosidase enzyme (Enzyme Acceptor; EA) localized to the plasma membrane. Incubation with compounds that increase PK-tagged F508del-CFTR at the plasma membrane will lead to complementation of the EA fragment to form a functional ß-galactosidase enzyme which is quantified by a chemiluminescence reaction.
The cells are incubated for 5h in the incubator before the addition of 5 μl/well of compound dilution series (5× working stocks in full medium). […] The cells are co-incubated with the compounds for 16h in the incubator at 37° C., 5% CO2. The next day, the cell plates are incubated for 2h at RT in the dark. […] Concentration-response curves are generated using compound-intrinsic maximal efficacy as upper plateau, and from these CRCs compound-intrinsic EC50 values are determined.
The calculated EC50 values may fluctuate depending on the daily assay performance. […] EC50 values from several measurements are given as geomean values. The calculated Emax values may fluctuate depending on the daily assay performance. […] Emax values from several measurements are given as arithmetic mean values.

For orientation: EC50 means the midpoint of the concentration-response curve. Broadly, the Emax is the greatest response seen or fitted, relative to the assay's reference. On to `CC(C)C[C@H]1C(=O)N2CCCC[C@@H]2C(=O)N[C@H](Cc2ccccc2)COc2cnc3ccccc3c2C(=O)N[C@H](C(=O)NCCc2cc(C(C)(C)C)on2)CC(=O)N1C` [Example 90, (9S,13S,19aS,22R)-22-benzyl-N-(2-(5-(tert-butyl)isoxazol-3-yl)ethyl)-13-isobutyl-12-methyl-7,11,14,20-tetraoxo-7,8,9,10,11,12,13,14,17,18,19,19a,20,21,22,23-hexadecahydro-16H-pyrido[2′,1′:6,7][1]oxa[4,7,10,14]tetraazacycloheptadecino[17,16-c]quinoline-9-carboxamide], for which the EC50 was determined as 364 nM and the Emax is 129%.

`COc1cc(CCNC(=O)[C@@H]2CC(=O)N(C)[C@@H](CC(C)C)C(=O)N3CCCC[C@@H]3C(=O)N[C@H](Cc3ccccc3)COc3cnc4ccccc4c3C(=O)N2)ccc1F` [Example 91, (9S,13S,19aR,22R)-22-benzyl-N-(4-fluoro-3-methoxyphenethyl)-13-isobutyl-12-methyl-7,11,14,20-tetraoxo-7,8,9,10,11,12,13,14,17,18,19,19a,20,21,22,23-hexadecahydro-16H-pyrido[2′,1′:6,7][1]oxa[4,7,10,14]tetraazacycloheptadecino[17,16-c]quinoline-9-carboxamide]: the EC50 was 466 nM. Under “U2OS”, the Emax stood at 210%.

Regarding `Cc1ccc(F)c(CCNC(=O)[C@@H]2CC(=O)N(C)[C@@H](CC(C)C)C(=O)N3CCCC[C@@H]3C(=O)N[C@H](Cc3ccccc3)COc3cnc4ccccc4c3C(=O)N2)c1` [Example 92, (9S,13S,19aR,22R)-22-benzyl-N-(2-fluoro-5-methylphenethyl)-13-isobutyl-12-methyl-7,11,14,20-tetraoxo-7,8,9,10,11,12,13,14,17,18,19,19a,20,21,22,23-hexadecahydro-16H-pyrido[2′,1′:6,7][1]oxa[4,7,10,14]tetraazacycloheptadecino[17,16-c]quinoline-9-carboxamide], the half-maximal effective concentration (EC50) was 289 nM. The Emax (U2OS) was determined as 256%.

Turning to `COc1cc(CCNC(=O)[C@@H]2CC(=O)N(C)[C@@H](CC(C)C)C(=O)N3CCCC[C@@H]3C(=O)N[C@H](Cc3ccccc3)COc3cnc4ccccc4c3C(=O)N2)ccc1-n1nccn1` [Example 93, (9S,13S,19aR,22R)-22-benzyl-13-isobutyl-N-(3-methoxy-4-(2H-1,2,3-triazol-2-yl)phenethyl)-12-methyl-7,11,14,20-tetraoxo-7,8,9,10,11,12,13,14,17,18,19,19a,20,21,22,23-hexadecahydro-16H-pyrido[2′,1′:6,7][1]oxa[4,7,10,14]tetraazacycloheptadecino[17,16-c]quinoline-9-carboxamide], the half-maximal effective concentration (EC50) was found to be 777 nM. The maximum response (Emax) (U2OS) amounted to 189%.

Consider `CC(C)C[C@H]1C(=O)N2CCCC[C@@H]2C(=O)N[C@H](Cc2ccccc2)COc2cnc3ccccc3c2C(=O)N[C@H](C(=O)NCCc2ccc(F)cc2F)CC(=O)N1C` [Example 94, (9S,13S,19aR,22R)-22-benzyl-N-(2,4-difluorophenethyl)-13-isobutyl-12-methyl-7,11,14,20-tetraoxo-7,8,9,10,11,12,13,14,17,18,19,19a,20,21,22,23-hexadecahydro-16H-pyrido[2′,1′:6,7][1]oxa[4,7,10,14]tetraazacycloheptadecino[17,16-c]quinoline-9-carboxamide], for which the concentration giving a half-maximal response (EC50) was 257 nM. In addition, the Emax (U2OS) was 201%.

On to `COc1ccc(CCNC(=O)[C@@H]2CC(=O)N(C)[C@@H](CC(C)C)C(=O)N3CCCC[C@@H]3C(=O)N[C@H](Cc3ccccc3)COc3cnc4ccccc4c3C(=O)N2)cc1C` [Example 95, (9S,13S,19aR,22R)-22-benzyl-13-isobutyl-N-(4-methoxy-3-methylphenethyl)-12-methyl-7,11,14,20-tetraoxo-7,8,9,10,11,12,13,14,17,18,19,19a,20,21,22,23-hexadecahydro-16H-pyrido[2′,1′:6,7][1]oxa[4,7,10,14]tetraazacycloheptadecino[17,16-c]quinoline-9-carboxamide], for which the EC50 is 250 nM. The Emax (U2OS) is 178%.

On to `Cc1cccc(CCNC(=O)[C@@H]2CC(=O)N(C)[C@@H](CC(C)C)C(=O)N3CCCC[C@@H]3C(=O)N[C@H](Cc3ccccc3)COc3cnc4ccccc4c3C(=O)N2)c1` [Example 96, (9S,13S,19aR,22R)-22-benzyl-13-isobutyl-12-methyl-N-(3-methylphenethyl)-7,11,14,20-tetraoxo-7,8,9,10,11,12,13,14,17,18,19,19a,20,21,22,23-hexadecahydro-16H-pyrido[2′,1′:6,7][1]oxa[4,7,10,14]tetraazacycloheptadecino[17,16-c]quinoline-9-carboxamide], for which the EC50 stood at 425 nM. Moreover, the maximal effect (Emax) (U2OS) was 206%.

Take `CC(C)C[C@H]1C(=O)N2CCCC[C@@H]2C(=O)N[C@H](Cc2ccccc2)COc2cnc3ccccc3c2C(=O)N[C@H](C(=O)NCCc2cccc(F)c2F)CC(=O)N1C` [Example 97, (9S,13S,19aR,22R)-22-benzyl-N-(2,3-difluorophenethyl)-13-isobutyl-12-methyl-7,11,14,20-tetraoxo-7,8,9,10,11,12,13,14,17,18,19,19a,20,21,22,23-hexadecahydro-16H-pyrido[2′,1′:6,7][1]oxa[4,7,10,14]tetraazacycloheptadecino[17,16-c]quinoline-9-carboxamide]: the concentration for a half-maximal effect (EC50) came to 146 nM. Also, the Emax (U2OS) came to 285%.

On to `Cc1cc(CCNC(=O)[C@@H]2CC(=O)N(C)[C@@H](CC(C)C)C(=O)N3CCCC[C@@H]3C(=O)N[C@H](Cc3ccccc3)COc3cnc4ccccc4c3C(=O)N2)no1` [Example 98, (9S,13S,19aR,22R)-22-benzyl-13-isobutyl-12-methyl-N-(2-(5-methylisoxazol-3-yl)ethyl)-7,11,14,20-], for which the EC50 was found to be 311 nM. Also, where the note is “U2OS”, the maximal response (Emax) was determined as 326%.

`CC(C)C[C@H]1C(=O)N2CCCC[C@@H]2C(=O)N[C@H](Cc2ccccc2)COc2cnc3ccccc3c2C(=O)N[C@H](C(=O)NCCc2c(F)cc(Br)cc2F)CC(=O)N1C` [Example 99, (9S,13S,19aR,22R)-22-benzyl-N-(4-bromo-2,6-difluorophenethyl)-13-isobutyl-12-methyl-7,11,14,20-tetraoxo-7,8,9,10,11,12,13,14,17,18,19,19a,20,21,22,23-hexadecahydro-16H-pyrido[2′,11:6,7][1]oxa[4,7,10,14]tetraazacycloheptadecino[17,16-c]quinoline-9-carboxamide]: the EC50 amounted to 205 nM. Further, the Emax (U2OS) came to 254%.

For the compound `COc1ccc(CCNC(=O)[C@@H]2CC(=O)N(C)[C@@H](CC(C)C)C(=O)N3CCCC[C@@H]3C(=O)N[C@H](Cc3ccccc3)COc3cnc4ccccc4c3C(=O)N2)cc1F` [Example 100, (9S,13S,19aR,22R)-22-benzyl-N-(3-fluoro-4-methoxyphenethyl)-13-isobutyl-12-methyl-7,11,14,20-tetraoxo-7,8,9,10,11,12,13,14,17,18,19,19a,20,21,22,23-hexadecahydro-16H-pyrido[2′,11:6,7][1]oxa[4,7,10,14]tetraazacycloheptadecino[17,16-c]quinoline-9-carboxamide], the 50% effective concentration (EC50) came to 184 nM. The Emax (U2OS) came out at 273%.

With `CC(C)C[C@H]1C(=O)N(C)CC(=O)N[C@H](Cc2ccccc2)COc2cc3c(cc2C(=O)N[C@H](C(=O)NCCc2ccc4c(c2)OCCCO4)CC(=O)N1C)OCO3` [Example 101, (7R,13S,17S)-7-benzyl-N-(2-(3,4-dihydro-2H-benzo[b][1,4]dioxepin-7-yl)ethyl)-13-isobutyl-11,14-dimethyl-9,12,15,19-tetraoxo-6,7,8,9,10,11,12,13,14,15,16,17,18,19-tetradecahydro-[1,3]dioxolo[4′,5′:4,5]benzo[1,2-p][1]oxa[4,7,10,14]tetraazacycloheptadecine-17-carboxamide], the EC50 was determined as 201 nM. Moreover, for the setting “U2OS”, the maximum response (Emax) came to 163%.

With `Cc1ccc(F)c(CCNC(=O)[C@@H]2CC(=O)N(C)[C@@H](CC(C)C)C(=O)N3CCCC[C@@H]3C(=O)N[C@H](Cc3ccccc3)COc3cnc4ccccc4c3C(=O)N2)c1F` [Example 102, (9S,13S,19aR,22R)-22-benzyl-N-(2,6-difluoro-3-methylphenethyl)-13-isobutyl-12-methyl-7,11,14,20-tetraoxo-7,8,9,10,11,12,13,14,17,18,19,19a,20,21,22,23-hexadecahydro-16H-pyrido[2′,11:6,7][1]oxa[4,7,10,14]tetraazacycloheptadecino[17,16-c]quinoline-9-carboxamide], the EC50 turned out to be 225 nM. For the same compound, the Emax (U2OS) came out at 332%.

For `CC(C)C[C@H]1C(=O)N2CCCC[C@@H]2C(=O)N[C@H](Cc2ccccc2)COc2cnc3ccccc3c2C(=O)N[C@H](C(=O)NCCc2ccns2)CC(=O)N1C` [Example 103, (9S,13S,19aR,22R)-22-benzyl-13-isobutyl-N-(2-(isothiazol-5-yl)ethyl)-12-methyl-7,11,14,20-tetraoxo-7,8,9,10,11,12,13,14,17,18,19,19a,20,21,22,23-hexadecahydro-16H-pyrido[2′,1′:6,7][1]oxa[4,7,10,14]tetraazacycloheptadecino[17,16-c]quinoline-9-carboxamide], the concentration giving a half-maximal response (EC50) worked out at 499 nM. Also, the Emax (U2OS) is 256%.

`Cc1cccc(F)c1CCNC(=O)[C@@H]1CC(=O)N(C)[C@@H](CC(C)C)C(=O)N2CCCC[C@@H]2C(=O)N[C@H](Cc2ccccc2)COc2cnc3ccccc3c2C(=O)N1` [Example 104, (9S,13S,19aR,22R)-22-benzyl-N-(2-fluoro-6-methylphenethyl)-13-isobutyl-12-methyl-7,11,14,20-tetraoxo-7,8,9,10,11,12,13,14,17,18,19,19a,20,21,22,23-hexadecahydro-16H-pyrido[2′,11:6,7][1]oxa[4,7,10,14]tetraazacycloheptadecino[17,16-c]quinoline-9-carboxamide]: the concentration giving a half-maximal response (EC50) is 211 nM. In addition, where the note is “U2OS”, the Emax was 204%.
